{
  "source": "patent US9250238B2",
  "about": "“Pathogen detection” (priority 2010, dated 2016)",
  "key": {"[1]": {"tested_on": "Y. enterocolitica", "experiment": "Capture on FOB-BSA micropatterned chips, darkfield and FFT", "format": "binding, Yersinia enterocolitica", "conditions": "NHS-activated codelink slide, 10^8 cfu/ml"}, "[2]": {"target": "T1, peanut lectin (Arachis hypogaea, UniProt P02872)", "T1 construct": "purchased Sigma (St. Louis, Mo.)", "T1 sequence (P02872 24-273)": "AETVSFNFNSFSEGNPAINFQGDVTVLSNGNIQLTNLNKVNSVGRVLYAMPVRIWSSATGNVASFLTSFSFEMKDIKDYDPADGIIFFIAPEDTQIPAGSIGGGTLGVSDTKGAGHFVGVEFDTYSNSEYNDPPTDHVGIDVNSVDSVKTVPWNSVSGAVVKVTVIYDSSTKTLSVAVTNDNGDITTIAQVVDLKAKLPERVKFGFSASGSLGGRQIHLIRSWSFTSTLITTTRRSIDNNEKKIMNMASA", "experiment": "Flow immunocytometry of peanut lectin binding to lactose-conjugated microspheres", "procedure": "Bishydrazide glycoconjugates can be directly attached onto surface-active substrates for the selective capture of lectins and subsequent binding immunoassays. For example, lactosebishydrazide 6 was attached onto NHS-activated latex microspheres in order to measure the binding affinity of peanut lectin by flow immunocytometry (Kd)) 50 nM), using a FITC-labeled secondary antibody for fluorescence detection (FIGS. 12A and 13). […] However, in some cases the use of carrier proteins such as BSA may be more convenient for surface functionalization by simple physisorption.\nFor flow cytometry, carboxylic acid functionalized microspheres were conjugated to lactose-bishydrazide 6 via standard EDC coupling for 16 hours at room temperature, followed by multiple washes with PBS. The lactose-conjugated microspheres were dispersed in PBS (1.2 mL) and split into several Eppendorf tubes, which were incubated with increasing concentrations of peanut lectin in the presence or absence of 100-fold excess lactose. After incubating for 2 hours at room temperature, tubes were rinsed and subjected to sequential incubation with anti-lectin rabbit IgG and anti-rabbit FITC IgG as described above. The microspheres were then analyzed for fluorescent immunolabeling using a flow cytometer (Cytomics F500, Beckman Coulter, 10^4 microspheres/sample). […]"}, "[3]": {"tested_on": "Pseudomonas aeruginosa", "experiment": "PathoChip detection sensitivity", "format": "binding", "conditions": "ligand conjugated to BSA"}, "[4]": {"tested_on": "Staphylococcus aureus", "experiment": "PathoChip detection sensitivity", "format": "binding", "conditions": "ligand conjugated to BSA"}, "[5]": {"tested_on": "Streptococcus pneumonaie", "experiment": "PathoChip detection sensitivity", "format": "binding", "conditions": "ligand conjugated to BSA"}, "[6]": {"tested_on": "Vibrio cholerae", "experiment": "PathoChip detection sensitivity", "format": "binding", "conditions": "ligand conjugated to BSA"}, "[7]": {"tested_on": "Pseudomonas aeruginosa", "experiment": "Capture of Pseudomonas on glycan-patterned substrates, darkfield and FFT", "format": "binding", "source_text": "A similar approach was used to generate photopatterned arrays of the pulmonary trisaccharide and 2′-fucosyllactose on BSA-coated substrates, using glycan-bishydrazide-ANB conjugates 16 and 17, respectively. These micropatterned substrates were exposed to the opportunistic pathogen Pseudomonas aeruginosa at 10^6-10^8 cfu/mL, then washed and imaged by optical darkfield microscopy to visualize patterns of glycan-immobilized bacteria in a label-free manner (FIGS. 15-17). […] Furthermore, only live Pseudomonas were captured by the trisaccharide ligands; exposing the bacteria to UV irradiation for 2 hours prior to their introduction resulted again in no observable pattern (FIG. 18). […]\nGlycan-bishydrazide conjugates could also be patterned onto substrates by microcontact printing (μCP), a well-established “soft lithography” technique based on microfabricated polydimethylsiloxane (PDMS) stamps for the physical transfer of organic or biomolecular ligands, including glycans (Kumar and Whitesides, Appl. Phys. Lett. 1993, 63:2002-2004; Bernard et al., Adv. Mater. 2000, 12:1067-1070; Inerowicz et al., Langmuir 2002, 18:5263-5268; Godula et al., Angew. Chem., Int. Ed 2009, 48:4973-4976; Wendeln et al., Langmuir 2010, 26:4933-4940). […] The substrates were blocked then exposed for 1 hour to Pseudomonas at 10^2-10^8 cfu/mL, then evaluated for evidence of patterned pathogen capture (FIGS. 19, 19A). […]"}, "[8]": {"tested_on": "Acinetobacter baumanii", "experiment": "PathoChip detection sensitivity", "format": "binding", "conditions": "ligand conjugated to BSA"}, "[9]": {"tested_on": "Chlamydia trachomatis", "experiment": "PathoChip detection sensitivity", "format": "binding", "conditions": "ligand conjugated to BSA"}, "[10]": {"tested_on": "Mycobacterium smegmatis", "experiment": "PathoChip detection sensitivity", "format": "binding", "conditions": "ligand conjugated to BSA"}, "[11]": {"tested_on": "Shigella spp.", "experiment": "PathoChip detection sensitivity", "format": "binding", "conditions": "ligand conjugated to BSA"}},
  "data": [
    {"molecule": "CC(=O)N([O-])CCCCCNC(=O)CCC(=O)N([O-])CCCCCNC(=O)CCC(=O)N([O-])CCCCCN.[Fe+3]", "note": "[FOB, ferrioxamine]", "values": [
      {"measurement": "bacteria binding with ligand attached directly, no BSA linker", "setting": "[1]", "value": "less bacteria binding onto the pattern than in the presence of BSA"}
    ]},
    {"molecule": "NNC(=O)COCCOCCOCCOCCOCCOCCOCC(=O)NN[C@@H]1OC(CO)[C@@H](OC2OC(CO)[C@H](O)[C@H](O)[C@@H]2O)[C@H](O)C1O", "note": "(stereo partly shown) [conjugate 6, Hexa(ethylene glycol)-linked lactose-bishydrazide conjugate]", "values": [
      {"measurement": "Kd", "setting": "[2]; 6 attached to NHS-activated latex microspheres, FITC secondary antibody", "value": 0.05, "unit": "µM"},
      {"measurement": "increase of Kd in competition assay", "setting": "[2]; against 1 mM lactose", "value": 10, "unit": "fold"}
    ]},
    {"molecule": "Hemin", "values": [
      {"measurement": "sensitivity, Pseudomonas aeruginosa", "setting": "[3]", "value": "1E3", "unit": "cfu/mL"},
      {"measurement": "sensitivity, Staphylococcus aureus", "setting": "[4]", "value": "1E3", "unit": "cfu/mL"},
      {"measurement": "sensitivity, Streptococcus pneumonaie", "setting": "[5]", "value": "1E5", "unit": "cfu/mL"},
      {"measurement": "sensitivity, Vibrio cholerae", "setting": "[6]", "value": "1E6/1E6 cfu/mL"}
    ]},
    {"molecule": "Hexa(ethylene glycol)-Linked 2′-Fucosyllactose-Bishydrazide Conjugate [conjugate 8]", "values": [
      {"measurement": "avidity of Pseudomonas cultures relative to pulmonary trisaccharide 7", "setting": "[7]", "value": "much lower avidity"}
    ]},
    {"molecule": "heparin", "values": [
      {"measurement": "sensitivity, Acinetobacter baumanii", "setting": "[8]", "value": "1E6", "unit": "cfu/mL"},
      {"measurement": "sensitivity, Chlamydia trachomatis", "setting": "[9]", "value": "1E3", "unit": "cfu/mL"},
      {"measurement": "sensitivity, Chlamydia trachomatis", "setting": "[9]; listed as Heparin", "value": "10^3 cfu/mL"},
      {"measurement": "sensitivity, Mycobacterium smegmatis", "setting": "[10]", "value": "1E6", "unit": "cfu/mL"},
      {"measurement": "sensitivity, Pseudomonas aeruginosa", "setting": "[3]", "value": "1E6", "unit": "cfu/mL"},
      {"measurement": "sensitivity, Shigella spp.", "setting": "[11]", "value": "1E6+ cfu/mL"},
      {"measurement": "sensitivity, Staphylococcus aureus", "setting": "[4]", "value": "1E6", "unit": "cfu/mL"},
      {"measurement": "sensitivity, Vibrio cholerae", "setting": "[6]", "value": "1E6+ cfu/mL"}
    ]}
  ]
}
